Assay results: patent US20260083722A1, “BIFUNCTIONAL DEGRADERS COMPRISING ELECTROPHILIC PROTACS THAT ENGAGE DCAF1 AND PHARMACEUTICAL COMPOSITIONS COMPRISING THE SAME” (THE SCRIPPS RESEARCH INSTITUTE, priority 2022, published 2026)

Legend:
[1] = molecular target: T1, recombinant DCAF1-WT (a.a.'s 1046-1396) (Homo sapiens, UniProt Q9Y4B6); experiment: gel-ABPP with recombinant purified DCAF1-WT doped into HEK293T cell proteome; type: binding
T1 construct: form of DCAF1 containing the WD40 domain (amino acids (a.a.'s) 1046-1396); made in house
T1 sequence (Q9Y4B6 1046-1396): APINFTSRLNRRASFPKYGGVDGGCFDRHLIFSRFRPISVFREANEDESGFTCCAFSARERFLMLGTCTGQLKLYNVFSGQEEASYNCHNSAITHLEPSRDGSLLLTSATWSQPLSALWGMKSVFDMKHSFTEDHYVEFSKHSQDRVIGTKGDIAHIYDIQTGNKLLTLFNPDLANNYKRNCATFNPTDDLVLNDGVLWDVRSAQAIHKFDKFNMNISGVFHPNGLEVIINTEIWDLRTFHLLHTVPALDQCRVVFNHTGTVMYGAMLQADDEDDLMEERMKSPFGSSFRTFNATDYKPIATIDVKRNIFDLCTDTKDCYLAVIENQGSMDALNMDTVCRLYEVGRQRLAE
T1 sequence (Q16531 whole entry partner, the tested form may be a part): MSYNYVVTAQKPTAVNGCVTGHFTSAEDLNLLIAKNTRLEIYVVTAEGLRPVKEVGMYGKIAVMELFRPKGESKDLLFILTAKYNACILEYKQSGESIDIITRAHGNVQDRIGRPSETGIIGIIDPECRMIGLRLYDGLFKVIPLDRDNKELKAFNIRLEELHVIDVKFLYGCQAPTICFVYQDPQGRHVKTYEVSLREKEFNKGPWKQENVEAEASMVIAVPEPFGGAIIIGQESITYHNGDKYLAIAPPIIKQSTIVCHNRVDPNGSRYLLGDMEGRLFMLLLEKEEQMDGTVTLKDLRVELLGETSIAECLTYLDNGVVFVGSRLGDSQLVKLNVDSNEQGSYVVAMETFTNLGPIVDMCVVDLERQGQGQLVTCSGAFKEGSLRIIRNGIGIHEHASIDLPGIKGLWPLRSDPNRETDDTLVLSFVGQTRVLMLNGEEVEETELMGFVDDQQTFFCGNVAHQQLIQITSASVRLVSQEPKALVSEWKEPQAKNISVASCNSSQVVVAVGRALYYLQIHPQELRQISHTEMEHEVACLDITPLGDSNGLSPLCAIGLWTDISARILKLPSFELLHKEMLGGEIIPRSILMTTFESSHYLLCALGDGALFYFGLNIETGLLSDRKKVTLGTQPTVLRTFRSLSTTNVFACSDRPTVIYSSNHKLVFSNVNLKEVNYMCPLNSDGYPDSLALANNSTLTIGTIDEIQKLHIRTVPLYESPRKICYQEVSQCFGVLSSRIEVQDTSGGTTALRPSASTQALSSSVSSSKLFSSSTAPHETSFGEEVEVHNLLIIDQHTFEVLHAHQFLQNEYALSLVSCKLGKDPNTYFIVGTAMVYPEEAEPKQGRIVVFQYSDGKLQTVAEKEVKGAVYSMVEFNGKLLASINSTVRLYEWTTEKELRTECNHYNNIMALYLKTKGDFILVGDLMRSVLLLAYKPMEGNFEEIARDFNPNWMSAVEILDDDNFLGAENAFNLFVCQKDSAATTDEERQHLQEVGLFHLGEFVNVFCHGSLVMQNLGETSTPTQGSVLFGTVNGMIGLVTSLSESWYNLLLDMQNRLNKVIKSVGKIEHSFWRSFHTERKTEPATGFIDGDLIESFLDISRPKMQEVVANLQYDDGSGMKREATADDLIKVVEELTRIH
Description: FIG. 2 that azetidine acrylamides stereo- and site-selectively engage recombinant DCAF1_C1113. (A) Domain map of DCAF1 with the region used for recombinant protein studies marked in a bracket (a.a.'s 1046-1396) and C1113 highlighted in red. (B) Crystal structure of a DCAF1-Vpx complex (pdb: 5AJA). DCAF1 (a.a.'s 1046-1396) is shown in cyan, Vpx is shown in yellow, and C1113, which is located at the DCAF1-Vpx interface is shown in red. (C) Structures of alkyne-modified azetidine acrylamides MY-11A (5) and MY-11B (6). (D) Gel-ABPP showing the concentration-dependent reactivity of MY-11A and MY-11B (1 h) reactivity with recombinant, purified DCAF1-WT or the DCAF1-C1113A mutant (0.06 μg/μL of DCAF1 protein per sample) doped into HEK293T cell proteome (1 μg/μL). MY-11A/B labeling of proteins was visualized by CuAAC conjugation to an azide-rhodamine tag followed by SDS-PAGE and in-gel fluorescence scanning. Results are from a single experiment representative of two independent experiments. (E) Gel-ABPP showing the concentration-dependent effects of MY-1A and MY-1B on MY-11B reactivity with DCAF1-WT. Samples were treated with MY-1A/B for 2 h, followed by MY-11B (25 μM, 1 h) and analyzed as described in (D). Left, quantification of data presented as mean values±SEM from two independent experiments. Right, representative gel-ABPP results. (D, E) Lower images are Coomassie blue-stained gels corresponding to ABPP gels shown in upper images.
(A) Structures of candidate electrophilic PROTACs YT41R (7), YT41S (8), YT47R (9), and YT47S (10). (B) Gel-ABPP showing the concentration-dependent effects of YT41R and YT47R on MY-11B reactivity with DCAF1-WT protein (0.06 μg/μL of DCAF1 protein per sample) doped into HEK293T cell proteome (1 μg/μL). Also shown are the effects of YT41S and YT47S tested at a single concentration (100 μM). Samples were treated with heterobifunctional compounds for 2 h, followed by MY-11B (25 μM, 1 h) and analyzed as described in FIG. 2D. Left, representative gel-ABPP results. Lower image is Coomassie blue-stained gel corresponding to ABPP gel shown in upper image. Right, quantification of data presented as mean values±SEM from two independent experiments.
DCAF1 is a multi-domain substrate receptor for CRL4 ligases (FIG. 2A) that has diverse physiological and disease functions, including being co-opted by the HIV-2 virus to promote degradation of the antiviral host protein SAMHD1^27-28. […] We verified the stereo- and site-selective engagement of DCAF1_C1113 by azetidine acrylamides using alkynylated analogues of MY-1A and MY-1B (MY-11A (5) and MY-11B (6), respectively; FIG. 2C). For these experiments, we doped into HEK293T cell lysates a recombinantly expressed and purified form of DCAF1 containing the WD40 domain (amino acids (a.a.'s) 1046-1396), in complex with the CRL4 adaptor protein DDB1^31, and exposed these samples to varying concentrations of MY-11A or MY-11B. After 1 h, we assessed MY-11A and MY-11B engagement of DCAF1 by copper-catalyzed azide-alkyne cycloaddition (CuAAC)^32 with an azide-rhodamine reporter tag followed by SDS-PAGE and in-gel fluorescence scanning^33. […] We used gel-ABPP to quantify an in vitro target engagement value (TE50) of approximately 25 μM (95% C.I.=13-38 μM) for MY-1B labeling of DCAF1 (FIG. 2E, left).

DCAF1-C1113A mutant = molecular target: T2, DCAF1-C1113A mutant (Homo sapiens, UniProt Q9Y4B6, C1113A); experiment: gel-ABPP with recombinant DCAF1-C1113A mutant doped into HEK293T cell proteome; type: binding; details: 1 h
T2 construct: the region used for recombinant protein studies marked in a bracket (a.a.'s 1046-1396); made in house
T2 sequence (Q9Y4B6 1046-1396 C1113A): as the sequence (Q9Y4B6 1046-1396) above, with C68A counted along it
T2 sequence (Q16531 whole entry partner): as the sequence (Q16531 whole entry partner, the tested form may be a part) above
Description: FIG. 2 that azetidine acrylamides stereo- and site-selectively engage recombinant DCAF1_C1113. (A) Domain map of DCAF1 with the region used for recombinant protein studies marked in a bracket (a.a.'s 1046-1396) and C1113 highlighted in red. (B) Crystal structure of a DCAF1-Vpx complex (pdb: 5AJA). DCAF1 (a.a.'s 1046-1396) is shown in cyan, Vpx is shown in yellow, and C1113, which is located at the DCAF1-Vpx interface is shown in red. (C) Structures of alkyne-modified azetidine acrylamides MY-11A (5) and MY-11B (6). […] MY-11A/B labeling of proteins was visualized by CuAAC conjugation to an azide-rhodamine tag followed by SDS-PAGE and in-gel fluorescence scanning. […] Samples were treated with MY-1A/B for 2 h, followed by MY-11B (25 μM, 1 h) and analyzed as described in (D). Left, quantification of data presented as mean values±SEM from two independent experiments. […]
DCAF1 is a multi-domain substrate receptor for CRL4 ligases (FIG. 2A) that has diverse physiological and disease functions, including being co-opted by the HIV-2 virus to promote degradation of the antiviral host protein SAMHD1^27-28. […] After 1 h, we assessed MY-11A and MY-11B engagement of DCAF1 by copper-catalyzed azide-alkyne cycloaddition (CuAAC)^32 with an azide-rhodamine reporter tag followed by SDS-PAGE and in-gel fluorescence scanning^33. […]

HA-FKBP12 = molecular target: T3, HA-FKBP12 (Homo sapiens, UniProt P62942); experiment: HA-FKBP12 abundance by Western blotting in transfected HEK293T cells; type: cell-based; details: 5 μM, 1 h pre-treatment
T3 construct: expressed in transfected cells; host or cells: HEK293T
T3 sequence (P62942 whole entry): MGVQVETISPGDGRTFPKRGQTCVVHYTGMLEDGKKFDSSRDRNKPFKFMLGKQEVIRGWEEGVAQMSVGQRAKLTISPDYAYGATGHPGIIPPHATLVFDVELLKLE
Description: (A) Left, western blots showing concentration-dependent effects of YT47R (upper) and YT41R (lower) on FKBP12 abundance in HEK293T cells expressing HA-FBKP12 with or without co-expression of FLAG-DCAF1. Right, quantification of HA-FKBP12 abundance in the indicated experimental groups. (B) Left, western blots showing effects of YT47R versus YT47S (upper) and YT41R versus YT41S (lower) on FKBP12 abundance in HEK293T cells co-expressing HA-FBKP12 and FLAG-DCAF1. Right, quantification of HA-FKBP12 abundance in the indicated experimental groups. (C) Western blots showing effects of YT47R (left blots) and YT41R (right blots) on FKBP12 abundance in HEK293T cells co-expressing HA-FBKP12 and either FLAG-DCAF1-WT or FLAG-DCAF1-C1113A mutant. Quantification of HA-FKBP12 abundance in the indicated experimental groups is shown in the adjacent bar graphs. For (A-C), FKBP12 abundance was determined at 24 h post-treatment with compounds, and data are mean values±SEM for three independent experiments. Statistical significance was calculated with unpaired two-tailed Student's t-tests comparing YT41R/YT47R- and DMSO-treated cells. ***P<0.001, ****P<0.0001.
(A) Left, western blots showing effects of proteasome (MG132) and Neddylation (MLN4924) inhibitors (1 h pre-treatment) on YT47R- and YT41R-dependent degradation of FKBP12 in HEK293T cells co-expressing HA-FBKP12 and FLAG-DCAF1. FKBP12 abundance was determined at 24 h post-treatment with YT47R or YT41R. Right, quantification of HA-FKBP12 abundance in the indicated experimental groups. (B) Left, western blots showing effects of the FKBP12 ligand SLF (20 μM) or DCAF1 ligand MY-11B (1 h pre-treatment with 20 μM SLF or 5 μM MY-11B) on YT47R- and YT41R-dependent degradation of FKBP12 in HEK293T cells co-expressing HA-FBKP12 and FLAG-DCAF1. FKBP12 abundance was determined at 24 h post-treatment with YT47R or YT41R. Right, quantification of HA-FKBP12 abundance in the indicated experimental groups. (C) Left, western blots showing effects of MY-11A or MY-11B (5 μM, 1 h pre-treatment) on YT47R- and YT41R-dependent degradation of FKBP12 in HEK293T cells co-expressing HA-FBKP12 and FLAG-DCAF1. FKBP12 abundance was determined at 24 h post-treatment with YT47R or YT41R. Right, quantification of HA-FKBP12 abundance in the indicated experimental groups. For (A-C), data are mean values±SEM for three-five independent experiments. Statistical significance was calculated with unpaired two-tailed Student's t-tests comparing YT41R/YT47R- and DMSO-treated cells. ****P<0.0001.
Figure S3. Concentration-dependent degradation of FKBP12 by DCAF1-directed electrophilic PROTACs. Top, western blots showing concentration-dependent effects of YT47R and YT41R on FKBP12 abundance in HEK293T cells co-expressing HA-FBKP12 and FLAG-DCAF1. Data are mean values±SEM for four independent experiments. Statistical significance was calculated with unpaired two-tailed Student's t-tests comparing YT41R/YT47R- and DMSO-treated cells. *P<0.1, **P<0.01, ***P<0.001, ****P<0.0001.
Figure S4. Time-dependent degradation of FKBP12 by DCAF1-directed electrophilic PROTACs. Top, western blots showing time-dependent effects of YT47R and YT41R (2 μM each) on FKBP12 abundance in HEK293T cells co-expressing HA-FBKP12 and FLAG-DCAF1. Data are mean values±SEM for four independent experiments. Statistical significance was calculated with unpaired two-tailed Student's t-tests comparing YT41R/YT47R- and DMSO-treated cells. ****P<0.0001.
We next treated HEK293T cells co-transfected with FLAG epitope-tagged full length DCAF1 (a.a.'s 1-1507) and HA (hemagglutinin) epitope-tagged FKBP12 with a concentration range of YT41R or YT47R and, after 24 h, measured HA-FKBP12 abundance by Western blotting.

[2] = system: ternary complex of FKBP12 and DCAF1; experiment: co-immunoprecipitation of DCAF1 with HA-FKBP12 in HEK293T cells (ternary complex); type: cell-based; details: FLAG-DCAF1-WT, 5 μM, 2 h, in the presence of MG132 (10 μM)
Method: (A) Left, western blots showing effects of YT47R and YT47S on the immunoprecipitation (IP) of FLAG-DCAF1-WT or FLAG-DCAF1-C1113A with HA-FKBP12 in HEK293T cells co-expressing these proteins. Cells were treated with YT47R or YT47S (5 μM) for 2 h in the presence of MG132 (10 μM) prior to lysis and IP with an anti-HA antibody and western blotting for the indicated proteins (DCAF1, FKBP12, and ubiquitinated protein). Right, bar graphs quantifying DCAF1 (top) and ubiquitination (Ub) (bottom) in the indicated IP groups. (B) Left, western blots showing effects of YT47R and YT47S on the IP of endogenous DCAF1 with HA-FKBP12 in HEK293T cells expressing HA-FKBP12. Cells were treated with YT47R or YT47S (5 μM) for 2 h in the presence of MG132 (10 μM) prior to lysis and IP with an anti-HA antibody and western blotting for the indicated proteins (DCAF1, FKBP12). Right, bar graph quantifying DCAF1 in the indicated IP groups. For (A, B), data are mean values±SEM for three independent experiments. Statistical significance was calculated with unpaired two-tailed Student's t-tests comparing YT41R/YT47R- and DMSO-treated cells. **P<0.01, ****P<0.0001. (C) MS-ABPP quantification of IA-DTB labeling of the indicated cysteines in DCAF1 from FLAG-DCAF1-WT-expressing HEK293T cells treated with the indicated concentrations of YT47R (3 h) relative to cells treated with DMSO. Data represent average values±SEM from four independent experiments. Statistical significance was calculated with unpaired two-tailed Student's t-tests comparing compound to DMSO treated cells. *P<0.1.
Finally, we investigated whether electrophilic PROTACs induce a stable ternary complex of FKBP12 with DCAF1 and promote FKBP12 ubiquitination. […] A ternary complex was not observed in cells expressing the DCAF1-C1113A mutant (FIG. 6A), supporting that YT47R induces this complex through site-specifically reacting with C1113. […] In considering possible reasons why this ternary complex formation with endogenous DCAF1 was insufficient to support the degradation of recombinantly expressed FKBP12 (FIG. 4A), we speculate that our current PROTACs (YT41R, YT47R) may require further improvements in cellular properties to enable robust targeted protein degradation mediated by physiological concentrations of DCAF1.

Row | Structure (SMILES) | labeling of recombinant DCAF1 by alkyne probe ([1]; 1 h, DCAF1-WT, CuAAC azide-rhodamine, in-gel fluorescence) | labeling of DCAF1-C1113A mutant by alkyne probe (DCAF1-C1113A mutant) | effect on YT41R/YT47R-mediated degradation of HA-FKBP12 (HA-FKBP12) | inhibition of MY-11B probe reactivity with recombinant DCAF1 ([1]; 2 h, then MY-11B 25 μM 1 h, YT41S and YT47S at single concentration 100 μM) | ternary complex of FKBP12 and DCAF1 [2]
1 | C#Cc1ccc([C@H]2CN(C(=O)C=C)[C@H]2C(=O)Nc2cccc3cccnc23)cc1 [MY-11B, (2R,3S)-1-acryloyl-3-(4-ethynylphenyl)-N-(88uinoline-8-yl) azetidine-2-carboxamide] | much greater concentration-dependent labeling | blocked by mutation of C1113 to alanine | blocked |  | 
2 | C=CC(=O)N1C[C@@H](c2ccc(C(=O)NCCOCCOCCOCCNC(=O)COc3cccc([C@@H](CCc4ccc(OC)c(OC)c4)OC(=O)[C@@H]4CCCCN4C(=O)C(=O)C(C)(C)CC)c3)cc2)[C@H]1C(=O)Nc1cccc2cccnc12 [YT47S] |  |  |  | did not impair | not
